Structures can show the parent of a compound that is named as a salt.
Columns and labels:
[1] = target: human JAK1 (a.a. 837-1142) (Homo sapiens, UniProt P23458); experiment: In vitro JAK kinase assay (HTRF, phosphorylation of biotinylated peptide); assay type: biochemical; settings: at Km ATP (90 μM ATP for Jak1)
Protocol: (§1) The compounds of the invention were tested for inhibitory activity of JAK targets according to the following in vitro assay described in Park et al., Analytical Biochemistry 1999, 269, 94-104. The catalytic domains of human JAK1 (a.a. 837-1142), JAK2 (a.a. 828-1132) and JAK3 (a.a. 781-1124) with an N-terminal His tag were expressed using baculovirus in insect cells and purified. The catalytic activity of JAK1, JAK2 or JAK3 was assayed by measuring the phosphorylation of a biotinylated peptide. The phosphorylated peptide was detected by homogenous time resolved fluorescence (HTRF). […] The ATP concentration in the reactions was 90 μM for Jak1, 30 μM for Jak2 and 3 μM for Jak3. Reactions were carried out at room temperature for 1 hr and then stopped with 20 μL 45 mM EDTA, 300 nM SA-APC, 6 nM Eu-Py20 in assay buffer (Perkin Elmer, Boston, Mass.). Binding to the Europium labeled antibody took place for 40 minutes and HTRF signal was measured on a Fusion plate reader (Perkin Elmer, Boston, Mass.).

[2] = target: human JAK2 (a.a. 828-1132) (Homo sapiens (Human), UniProt O60674); experiment: as above; assay type: biochemical; settings: for IC50: at Km ATP (30 μM ATP for Jak2)
Sequence of human JAK2 (a.a. 828-1132) (O60674 828-1132): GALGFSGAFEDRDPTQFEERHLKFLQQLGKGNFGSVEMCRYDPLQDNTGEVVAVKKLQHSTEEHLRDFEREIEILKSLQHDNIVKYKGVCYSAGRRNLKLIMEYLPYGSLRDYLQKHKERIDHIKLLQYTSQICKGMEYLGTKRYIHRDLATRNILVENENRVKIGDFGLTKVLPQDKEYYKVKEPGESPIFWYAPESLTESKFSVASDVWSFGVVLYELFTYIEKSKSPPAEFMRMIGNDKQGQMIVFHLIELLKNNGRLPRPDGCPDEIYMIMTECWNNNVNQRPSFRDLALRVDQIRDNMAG
Protocol: as §1

SMILES | IC50 [1] [nM] | IC50 [2] [nM] | JAK2 activity compared with the other form/enantiomer (in words) [2]
CCCCC(CC#N)n1cc(-c2ncnc3[nH]ccc23)cn1 (single isomer, unassigned) [Example 2, first peak (free base), 3-[4-(7H-pyrrolo[2,3-d]pyrimidin-4-yl)-1H-pyrazol-1-yl]heptanenitrile] | 1.8 | 1.4 | 
CCCCC(CC#N)n1cc(-c2ncnc3[nH]ccc23)cn1 (single isomer, unassigned) [Example 2, second peak (phosphate salt), 3-[4-(7H-pyrrolo[2,3-d]pyrimidin-4-yl)-1H-pyrazol-1-yl]heptanenitrile phosphoric acid salt] | 2 | 0.65 | 
CCCCCC(CC#N)n1cc(-c2ncnc3[nH]ccc23)cn1 (single isomer, unassigned) [Example 1, first peak (free base), 3-[4-(7H-pyrrolo[2,3-d]pyrimidin-4-yl)-1H-pyrazol-1-yl]octanenitrile] |  |  | not as potent as the other enantiomer
CCCCC(CC#N)n1cc(-c2ncnc3[nH]ccc23)cn1 (single isomer, unassigned) [Example 2, second peak (free base), 3-[4-(7H-pyrrolo[2,3-d]pyrimidin-4-yl)-1H-pyrazol-1-yl]heptanenitrile] | 0.57 | 0.3 | 
CCCCCC(CC#N)n1cc(-c2ncnc3[nH]ccc23)cn1.O=P(O)(O)O (single isomer, unassigned) [Example 1, second peak (phosphate salt), 3-[4-(7H-pyrrolo[2,3-d]pyrimidin-4-yl)-1H-pyrazol-1-yl]octanenitrile phosphoric acid salt] |  |  | similarly active
